Among the data in US8372837B2, “Pyridone and pyridazone analogues as GPR119 modulators” (Bristol-Myers Squibb Company, priority 2008, dated 2013) are EC50 values, retold here.

For the experiment, the target named is T1, hGPR119 (Homo sapiens, UniProt Q8TDV5).
T1 construct: expressed in transfected cells; host or cells: Flp-In T-REx 293 (tetracycline-inducible)
T1 sequence (Q8TDV5 1-335): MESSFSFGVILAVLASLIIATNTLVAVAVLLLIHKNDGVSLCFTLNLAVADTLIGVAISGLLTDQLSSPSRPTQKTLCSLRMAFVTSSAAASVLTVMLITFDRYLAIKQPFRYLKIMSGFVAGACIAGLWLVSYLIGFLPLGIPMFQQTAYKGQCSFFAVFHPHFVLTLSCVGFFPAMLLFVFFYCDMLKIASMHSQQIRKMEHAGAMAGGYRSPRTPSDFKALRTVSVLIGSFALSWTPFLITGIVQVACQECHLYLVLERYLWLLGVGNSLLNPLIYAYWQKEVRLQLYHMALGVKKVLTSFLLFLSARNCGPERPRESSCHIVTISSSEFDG
Put plainly: Human Tet-inducible cAMP assay. The format is cell-based. The note with it: Flp-In T-REx 293 tetracycline inducible cells expressing GPR119; cAMP by HITHUNTER kit; 1 hour incubation. The method, then:
The in vitro modulation of recombinant human GPR119 was determined as follows.
Human Tet-Inducible cAMP Assay
Cell lines expressing GPR119 are generated using the Flp-In T-REx 293 tetracycline inducible gene expression system are cultured in culture medium comprising the following components: DMEM#11965, 10% FBS, 2 mM L-glutamine, 200 ug/ml Hygromycin B, and 15 ug/ml blasticidin.
For cAMP assays, cells are plated on 96 well plates (e.g., BD Falcon: REF 353948, black side, clear bottom, TC surface) at a density of about 4.5×10^4 cells per well in growth medium containing 1.0 ug/ml tetracycline (1.0 mg/ml stock). The cells are then incubated for 48 hours at 37° C.
Following the incubation, the growth medium is removed from the wells and the wells rinsed (once) with the assay buffer included in the HITHUNTER® cAMP kit (100 μl/well). Following the wash, 20 μl of assay buffer is added to each well, followed by addition of 10 μl of a 3× concentration compound working solution. The solution is then mixed. The final concentration range of compound is from about 10^−5M to about 10^−11 M. The reagents are then incubated at 37° C. at 5% CO2 for 1 hour.
The manufacturer's protocol may be followed for cAMP determination. The HITHUNTER® cAMP kit protocol is outlined for the HIT-T15 cAMP assays described above.
Compounds of the present invention were tested in the Human Tet-inducible cAMP assay described immediately above and the results shown in Table 1 below were obtained.
In general terms: cAMP levels reflect the balance of adenylyl cyclase and phosphodiesterase activity.
As a reminder, the EC50 is the midpoint of the concentration-response curve. A high value points to a less potent agent. The compound `CC(=O)c1cnc(N2CCC(Oc3cnn(-c4ccc(S(C)(=O)=O)cc4)c(=O)c3)CC2)nc1` [Example 11, 5-(1-(5-Acetylpyrimidin-2-yl)piperidin-4-yloxy)-2-(4-(methylsulfonyl)phenyl)pyridazin-3(2H)-one] yielded an EC50 of 4600 nM.

In turn, `CC(C)(C)OC(=O)N1CCC(Oc2cc(=O)n(-c3ccc(Cl)c(Cl)c3)nc2C(N)=O)CC1` [Example 16, tert-Butyl 4-(3-carbamoyl-1-(3,4-dichlorophenyl)-6-oxo-1,6-dihydropyridazin-4-yloxy)piperidine-1-carboxylate] came in with an EC50 of 3390 nM.

The compound `COC(=O)c1nn(-c2ccc(S(C)(=O)=O)cc2)c(=O)cc1OC1CCN(C(=O)OC(C)(C)C)CC1` [Example 18, Methyl 4-(1-(tert-butoxycarbonyl)piperidin-4-yloxy)-1-(4-(methylsulfonyl)phenyl)-6-oxo-1,6-dihydropyridazine-3-carboxylate] registered an EC50 of 4010 nM.

The compound `N#Cc1nn(-c2ccc(Cl)c(Cl)c2)c(=O)cc1OC1CCN(c2ncc(C(F)(F)F)cn2)CC1` [Example 26, 1-(3,4-Dichlorophenyl)-6-oxo-4-(1-(5-(trifluoromethyl)pyrimidin-2-yl)piperidin-4-yloxy)-1,6-dihydropyridazine-3-carbonitrile] gave an EC50 of 5 nM.

In turn, `CC(C)(C)OC(=O)N1CCC(Oc2cc(=O)n(-c3ccc(S(C)(=O)=O)cc3)nc2C#N)CC1` [Example 31, tert-Butyl 4-(3-cyano-1-(4-(methylsulfonyl)phenyl)-6-oxo-1,6-dihydropyridazin-4-yloxy)piperidine-1-carboxylate] came in with an EC50 of 83 nM.

With `CC(C)(C)OC(=O)N1CCC(Oc2cc(=O)n(-c3ccc(C#N)c(F)c3)nc2C#N)CC1` [Example 34, tert-Butyl 4-(3-cyano-1-(4-cyano-3-fluorophenyl)-6-oxo-1,6-dihydropyridazin-4-yloxy)piperidine-1-carboxylate], a half-maximal effect (EC50) was put at 3 nM.

`CCCc1cnc(N2CCC(Oc3cc(=O)n(-c4ccc(C#N)c(F)c4)nc3C#N)CC2)nc1` [Example 38, 1-(4-Cyano-3-fluorophenyl)-6-oxo-4-(1-(5-propylpyrimidin-2-yl)piperidin-4-yloxy)-1,6-dihydropyridazine-3-carbonitrile] gave a half-maximal effective concentration (EC50) of 8 nM.

On to `COC(=O)c1nn(-c2ccc(C#N)c(F)c2)c(=O)cc1OC1CCN(c2ncc(Br)cn2)CC1` [Example 42, Methyl 4-(1-(5-bromopyrimidin-2-yl)piperidin-4-yloxy)-1-(4-cyano-3-fluorophenyl)-6-oxo-1,6-dihydropyridazine-3-carboxylate], for which the EC50 is 107 nM.

Regarding `CC(C)(C)OC(=O)N1CCC(Oc2cc(=O)n(-c3ccc(Br)c(F)c3)nc2C#N)CC1` [Example 45, tert-Butyl 4-(1-(4-bromo-3-fluorophenyl)-3-cyano-6-oxo-1,6-dihydropyridazin-4-yloxy)piperidine-1-carboxylate], the response was half-maximal at 95 nM (EC50).
